Test system: bacterial mixture of Staphylococcus aureus ATCC 9144 and Escherichia coli NCTC 8196
Assay: Antimicrobial activity in agar plates after irradiation with xenon light, viable bacteria counted
Format: cell-based
Description: Determination of Antimicrobial Activity of Tinopal CBS-X after Irradiation with Light
The optical brightener of the formula [drawing 28]
is incorporated in agar plates and subsequently inoculated with bacteria and irradiated with xenon light for 10 minutes or 30 minutes.
The test is used to detect antimicrobial activity by comparison with unirradiated samples.
To this end, a 1.5% stock solution in DMSO is prepared.
0.5 and 0.1 ml of this solution are added to 15 ml of liquid agar (final concentration: 500 and 100 ppm).
After solidification and drying, a bacterial mixture of Staphylococcus aureus and Escherichia coli is plated out on the agar (final concentration cfu/ml:˜10^5). The plates are fixed on cotton by means of double sided Scotch tape and are irradiated with a xenon lamp for 10 or 30 minutes.
Unirradiated agar plattes including 100 and 500 ppm of Tinopal CBS-X and agar plates without Tinopal are incubated as controls.
All plates were incubated at 37° C. for about 48 hours. After incubation, viable bacteria are counted (see Table 1).
Staphylococcus aureus ATCC 9144
Escherichia coli NCTC 8196
Cultures 18 to 24 hours in casein soymeal peptone broth diluted 1:5000 (Staph.) and 1:10,000 (E. coli) and mixed together
The table reports the number of colony-forming units of bacteria after 10 minutes' and 30 minutes' irradiation.

SMILES: O=S(=O)([O-])c1ccccc1C=Cc1ccc(-c2ccc(C=Cc3ccccc3S(=O)(=O)[O-])cc2)cc1.[Na+].[Na+] [Tinopal CBS-X]
- number of colony-forming units of bacteria (100 ppm in agar, control not irradiated with xenon light (t: 0′)): 4.4 × 10^4 (t: 0′) colony-forming units
- number of colony-forming units of bacteria (100 ppm in agar, irradiated with xenon light, 10 minutes, incubated 37° C. about 48 hours): 2.3 × 10^4 colony-forming units
- number of colony-forming units of bacteria (100 ppm in agar, irradiated with xenon light, 30 minutes, incubated 37° C. about 48 hours): 5.1 × 10^2 colony-forming units
- reduction of the microorganisms compared with unirradiated plates and plates without Tinopal CBS-X (100 ppm or 500 ppm in agar nutrient medium, 30 minutes' irradiation with a xenon lamp): effective to substantially reduce the microorganisms
- number of colony-forming units of bacteria (500 ppm in agar, control not irradiated with xenon light (t: 0′)): 4.3 × 10^4 (t: 0′) colony-forming units
- number of colony-forming units of bacteria (500 ppm in agar, irradiated with xenon light, 10 minutes, incubated 37° C. about 48 hours): 3.0 × 10^4 colony-forming units
- number of colony-forming units of bacteria (500 ppm in agar, irradiated with xenon light, 30 minutes, incubated 37° C. about 48 hours): 1.5 × 10^2 colony-forming units
